Measured values taken from PMC9861386, “N-Heterocyclic Carbene-Iridium Complexes as Photosensitizers for In Vitro Photodynamic Therapy to Trigger Non-Apoptotic Cell Death in Cancer Cells” (Molecules, 2023).
Like-named read-outs stand apart in the source and are kept apart here.

How the values were obtained:
[1] = Octanol–water partition coefficient, shake-flask method; assay type: physicochemical; details: n-octanol/water, UV absorbance 260 nm
Method: Lipophilicities of all complexes have been measured by the classical shake-flask method, using UV absorption. The Log p values range from -0.063 to 0.861 in increasing order –0.063 (4a), 0.035 (4d), 0.519 (4f), 0.581 (4c), 0.842 (4b), 0.847 (4e) and 0.861 (4g).
The octanol–water partition coefficients (P) of 4a to 4g were determined using a shake-flask method. Water (100 mL, distilled after milli-Q purification) and n-octanol (100 mL, Sigma-Aldrich, St. Louis, MO, USA, ACS spectrophotometric grade, ≥99%) were shaken together for 24 h to allow saturation of both phases. Stock solutions of the […] compounds (50 μM) were prepared in the aqueous phase and aliquots (1 mL) of each of these stock solutions were then added to an equal volume of the n-octanol phase. The resultant biphasic solutions were mixed for 1 h and then centrifuged (3000× g, 5 min) (Eppendorf Centrifuges 5415R and 5804R) to separate the phases. The concentrations of the complexes in the organic and aqueous phases were then determined using UV absorbance spectroscopy (260 nm). Log P was defined as the logarithm of the ratio of the concentrations of the studied complex in the organic and aqueous phases (Log P = Log {[Ir(org)]/[Ir(aq)]}; values reported are the means of at least two separate determinations).

A549 lung cancer cells = assay: MTT cell viability, 72 h, dark or 458 nm irradiation; assay type: cell-based, human; details: for GI50: 72 h, MTT; for PI A549: GI50 non-irradiated / GI50 irradiated; for SI vs MC3T3, A549 Blue / SI vs NIH, A549 Blue: blue light; for SI vs MC3T3, A549 Blue / SI vs MC3T3, A549 Dark: GI50 MC3T3 / GI50 A549; for SI vs NIH, A549 Blue / SI vs NIH, A549 Dark: GI50 NIH-3T3 / GI50 A549
Method: (§1) For all biology experiments, the compounds were solubilized in DMSO to reach a final fixed concentration equal to 0.1% v/v to avoid cytotoxicity caused by DMSO [89]. The results are normalized to controls (0.1% v/v DMSO). Depending on the cell type, approximatively 1000 to 10,000 cells/cm^2 were seeded in 48-well plates for MTT, ATP and GSH assays and 60 mm Petri dishes for Western blots. Cells were allowed to attach overnight and then incubated for 4 h with the different complexes (in the dark), then irradiated for 10 min, followed by an incubation in the dark up to 72 h.
(§2) Irradiation was conducted using an in-house device: a series of blue light LEDs selected according to the absorption spectra of the compounds at a 458 nm wavelength with an emitted power of 9.6 watts. The absorbed energy, or irradiance, was measured at 458 nm with a Thorlabs Optical Power Meter PM100A at 5 and 10 cm distance between the cell layer and the light source and expressed as mW/cm^2.
(§3) A tetrazolium-based MTT reagent (3-(4,5-dimethylthiazol-2-yl)-2,5-diphenyltetrazolium bromide) was used to determine cell viability, as previously described. After 72 h of treatment at 37 °C and 5% CO2, cells were incubated with 25 μL MTT solution (5 mg/mL; Sigma-Aldrich) for 4 h. After solubilization with 500 μL of lysis buffer (DMSO), formazan was quantified by spectrophotometry with a microplate reader at 570 nm absorbance (ClarioSTAR, BMG LabTech, Champigny-sur-Marne, France). GI50 values corresponding to the concentration that caused 50% inhibition of cell proliferation were calculated from dose–response curves obtained by nonlinear regression analysis. All results were calculated from data obtained in at least three independent experiments.

HeLa cervix cancer cells = assay: as above; assay type: cell-based, human; details: for GI50: 72 h, MTT; for PI HeLa: GI50 non-irradiated / GI50 irradiated; for SI vs MC3T3, HeLa Blue / SI vs NIH, HeLa Blue: blue light; for SI vs MC3T3, HeLa Blue / SI vs MC3T3, HeLa Dark: GI50 MC3T3 / GI50 HeLa; for SI vs NIH, HeLa Blue / SI vs NIH, HeLa Dark: GI50 NIH-3T3 / GI50 HeLa
Method: as §1, §2, §3

[2] = system: MCF7/FasR breast cancer cells; assay: as above; assay type: cell-based, human; details: for GI50: 72 h, MTT; for PI MCF7: GI50 non-irradiated / GI50 irradiated; for SI vs MC3T3, MCF7 Blue / SI vs NIH, MCF7 Blue: blue light; for SI vs MC3T3, MCF7 Blue / SI vs MC3T3, MCF7 Dark: GI50 MC3T3 / GI50 MCF7; for SI vs NIH, MCF7 Blue / SI vs NIH, MCF7 Dark: GI50 NIH-3T3 / GI50 MCF7
Method: as §1, §2, §3

[3] = system: PC-3 prostate cancer cells; assay: as above; assay type: cell-based, human; details: for GI50: 72 h, MTT; for PI PC-3: GI50 non-irradiated / GI50 irradiated; for SI vs MC3T3, PC-3 Blue / SI vs NIH, PC-3 Blue: blue light; for SI vs MC3T3, PC-3 Blue / SI vs MC3T3, PC-3 Dark: GI50 MC3T3 / GI50 PC-3; for SI vs NIH, PC-3 Blue / SI vs NIH, PC-3 Dark: GI50 NIH-3T3 / GI50 PC-3
Method: as §1, §2, §3

T24 bladder cancer cells = assay: as above; assay type: cell-based, human; details: for GI50: 72 h, MTT; for PI T24: GI50 non-irradiated / GI50 irradiated; for SI vs MC3T3, T24 Blue / SI vs NIH, T24 Blue: blue light; for SI vs MC3T3, T24 Blue / SI vs MC3T3, T24 Dark: GI50 MC3T3 / GI50 T24; for SI vs NIH, T24 Blue / SI vs NIH, T24 Dark: GI50 NIH-3T3 / GI50 T24
Method: as §1, §2, §3

[4] = 458 nm irradiation 10 min, read-out: GI50 A549 Blue
[5] = 458 nm irradiation 10 min, read-out: GI50 HeLa Blue
[6] = 458 nm irradiation 10 min, read-out: GI50 MCF7 Blue
[7] = 458 nm irradiation 10 min, read-out: GI50 PC-3 Blue
[8] = 458 nm irradiation 10 min, read-out: GI50 T24 Blue

Compound | Log P [1] | GI50 (A549 lung cancer cells; [4]) | PI A549 (A549 lung cancer cells) | SI vs MC3T3, A549 Blue (A549 lung cancer cells) | SI vs NIH, A549 Blue (A549 lung cancer cells) | GI50 (A549 lung cancer cells; dark, read-out: GI50 A549 Dark) | SI vs MC3T3, A549 Dark (A549 lung cancer cells; dark) | SI vs NIH, A549 Dark (A549 lung cancer cells; dark) | GI50 (HeLa cervix cancer cells; [5]) | PI HeLa (HeLa cervix cancer cells) | SI vs MC3T3, HeLa Blue (HeLa cervix cancer cells) | SI vs NIH, HeLa Blue (HeLa cervix cancer cells) | GI50 (HeLa cervix cancer cells; dark, read-out: GI50 HeLa Dark) | SI vs MC3T3, HeLa Dark (HeLa cervix cancer cells; dark) | SI vs NIH, HeLa Dark (HeLa cervix cancer cells; dark) | GI50 [2, 6] | PI MCF7 [2] | SI vs MC3T3, MCF7 Blue [2] | SI vs NIH, MCF7 Blue [2] | GI50 ([2]; dark, read-out: GI50 MCF7 Dark) | also measured
CC(C)C[n+]1ccn2[c]1[Ir-3]13([c]4ccccc4-c4cccc[n+]41)([c]1ccccc1-c1cccc[n+]13)[c]1n(cc[n+]1CC(C)C)C2.F[P-](F)(F)(F)(F)F [Complex 4b] | 0.842 | 84 nM | 4.2 | 8.4 | 18.1 | 354 nM | 2.8 | 5.5 | 294 nM | 2.1 | 2.4 | 5.2 | 625 nM | 1.6 | 3.1 | 53 nM | 4.0 | 13.3 | 28.7 | 211 nM | SI vs MC3T3, MCF7 Dark ([2]; dark): 4.6; SI vs NIH, MCF7 Dark ([2]; dark): 9.2; GI50 [3, 7]: 71 nM; PI PC-3 [3]: 3.6; SI vs MC3T3, PC-3 Blue [3]: 9.9; SI vs NIH, PC-3 Blue [3]: 21.4; GI50 ([3]; dark, read-out: GI50 PC-3 Dark): 257 nM; SI vs MC3T3, PC-3 Dark ([3]; dark): 3.8; SI vs NIH, PC-3 Dark ([3]; dark): 7.6; GI50 (T24 bladder cancer cells; [8]): 90 nM; PI T24 (T24 bladder cancer cells): 2.8; SI vs MC3T3, T24 Blue (T24 bladder cancer cells): 7.7; SI vs NIH, T24 Blue (T24 bladder cancer cells): 16.7; GI50 (T24 bladder cancer cells; dark, read-out: GI50 T24 Dark): 259 nM; SI vs MC3T3, T24 Dark (T24 bladder cancer cells; dark): 3.8; SI vs NIH, T24 Dark (T24 bladder cancer cells; dark): 7.5
F[P-](F)(F)(F)(F)F.c1ccc(C[n+]2ccn3[c]2[Ir-3]24([c]5ccccc5-c5cccc[n+]52)([c]2ccccc2-c2cccc[n+]24)[c]2n(cc[n+]2Cc2ccccc2)C3)cc1 [Complex 4c] | 0.581 | 171 nM | 2.4 | 7.8 | 15.6 | 407 nM | 2.9 | 6.7 | 275 nM | 1.8 | 4.8 | 9.7 | 494 nM | 2.3 | 5.5 | 61 nM | 4.1 | 21.8 | 43.8 | 248 nM | SI vs MC3T3, MCF7 Dark ([2]; dark): 4.7; SI vs NIH, MCF7 Dark ([2]; dark): 11.0; GI50 [3, 7]: 116 nM; PI PC-3 [3]: 2.9; SI vs MC3T3, PC-3 Blue [3]: 11.5; SI vs NIH, PC-3 Blue [3]: 23.0; GI50 ([3]; dark, read-out: GI50 PC-3 Dark): 336 nM; SI vs MC3T3, PC-3 Dark ([3]; dark): 3.5; SI vs NIH, PC-3 Dark ([3]; dark): 8.1; GI50 (T24 bladder cancer cells; [8]): 91 nM; PI T24 (T24 bladder cancer cells): 3.9; SI vs MC3T3, T24 Blue (T24 bladder cancer cells): 14.6; SI vs NIH, T24 Blue (T24 bladder cancer cells): 29.3; GI50 (T24 bladder cancer cells; dark, read-out: GI50 T24 Dark): 358 nM; SI vs MC3T3, T24 Dark (T24 bladder cancer cells; dark): 3.2; SI vs NIH, T24 Dark (T24 bladder cancer cells; dark): 7.6
CSc1ccc(-[n+]2ccn3[c]2[Ir-3]24([c]5ccccc5-c5cccc[n+]52)([c]2ccccc2-c2cccc[n+]24)[c]2n(cc[n+]2-c2ccc(SC)cc2)C3)cc1.F[P-](F)(F)(F)(F)F [Complex 4d] | 0.035 | 617 nM | 2.4 | 2.9 | 4.5 | 1510 nM | 1.4 | 1.5 | 817 nM | 1.9 | 2.2 | 3.4 | 1540 nM | 1.4 | 1.5 | 117 nM | 3.1 | 15.4 | 23.8 | 365 nM | SI vs MC3T3, MCF7 Dark ([2]; dark): 5.7; SI vs NIH, MCF7 Dark ([2]; dark): 6.4; GI50 [3, 7]: 157 nM; PI PC-3 [3]: 3.2; SI vs MC3T3, PC-3 Blue [3]: 11.5; SI vs NIH, PC-3 Blue [3]: 17.7; GI50 ([3]; dark, read-out: GI50 PC-3 Dark): 509 nM; SI vs MC3T3, PC-3 Dark ([3]; dark): 4.1; SI vs NIH, PC-3 Dark ([3]; dark): 4.6; GI50 (T24 bladder cancer cells; [8]): 165 nM; PI T24 (T24 bladder cancer cells): 3.0; SI vs MC3T3, T24 Blue (T24 bladder cancer cells): 10.9; SI vs NIH, T24 Blue (T24 bladder cancer cells): 16.8; GI50 (T24 bladder cancer cells; dark, read-out: GI50 T24 Dark): 501 nM; SI vs MC3T3, T24 Dark (T24 bladder cancer cells; dark): 4.2; SI vs NIH, T24 Dark (T24 bladder cancer cells; dark): 4.7
